The values that follow come from patent US8030487B2, “2-amino—5-substituted pyrimidine inhibitors” (TargeGen, Inc., priority 2006, dated 2011).

As usually defined, the IC50 is the concentration at which inhibition is half-maximal. A high value points to lower potency.

The target of one test is T1, human c-Src (Homo sapiens, UniProt P12931).
T1 construct: purchased Panvera/Invitrogen
In words: Src kinase inhibition (KinaseGlo residual ATP). Conditions: ATP 3 μM, 90 min room temperature. The class given is biochemical. The protocol: (§1) The ability of compounds of the present invention to inhibit the activity of various groups of kinases was tested. Kinases that were tested are described below. All kinase reactions were conducted in 96-well plates with a final reaction volume of 50 μl.
Recombinant human c-Src or Yes, or Fyn, or Lck (28 ng/well, Panvera/Invitrogen, Madison Wis.), ATP (3 μM), a tyrosine kinase substrate (PTK2, 250 μM, Promega Corp., Madison Wis.), and test agents (at concentrations ranging from about 1 nM/l to about 100 μM/l), in the presence of Src kinase reaction buffer (Upstate USA, Lake Placid N.Y.). After reacting for about 90 minutes at room temperature, residual ATP was determined using a luciferase-based assay (KinaseGlo, Promega Corp.) as a measure of kinase activity. Data from four wells were then averaged and used to determine IC50 values for the test compounds (Prism software package, GraphPad Software, San Diego Calif.).
In general terms: In Kinase-Glo more light means more ATP remaining.

Another test has as its target T2, VEGFR2 (Homo sapiens, UniProt P35968).
T2 construct: purchased Cell Signaling/ProQinase
In words: VEGFR2 kinase inhibition (residual ATP luminescence). In kind it is biochemical. Conditions: 1.5 uM ATP, 60 min 37° C. The protocol: as §1
EGFR and VEGFR2 kinase assays were similarly performed. EGFR (76 ng/well, Panvera/Invitrogen) was combined with 12.5 mg/ml poly(glu4tyr) (Sigma) and 2.5 uM ATP. VEGFR2 (14.1 U/well, Cell Signaling/ProQinase) was used with 0.3 mg/ml poly(glu4tyr) and 1.5 uM ATP. Both were incubated for 60 minutes at 37° C., and the residual ATP was measured via luminescence, per the procedure described above.

T2 sequence (P35968 20-1356, species assumed): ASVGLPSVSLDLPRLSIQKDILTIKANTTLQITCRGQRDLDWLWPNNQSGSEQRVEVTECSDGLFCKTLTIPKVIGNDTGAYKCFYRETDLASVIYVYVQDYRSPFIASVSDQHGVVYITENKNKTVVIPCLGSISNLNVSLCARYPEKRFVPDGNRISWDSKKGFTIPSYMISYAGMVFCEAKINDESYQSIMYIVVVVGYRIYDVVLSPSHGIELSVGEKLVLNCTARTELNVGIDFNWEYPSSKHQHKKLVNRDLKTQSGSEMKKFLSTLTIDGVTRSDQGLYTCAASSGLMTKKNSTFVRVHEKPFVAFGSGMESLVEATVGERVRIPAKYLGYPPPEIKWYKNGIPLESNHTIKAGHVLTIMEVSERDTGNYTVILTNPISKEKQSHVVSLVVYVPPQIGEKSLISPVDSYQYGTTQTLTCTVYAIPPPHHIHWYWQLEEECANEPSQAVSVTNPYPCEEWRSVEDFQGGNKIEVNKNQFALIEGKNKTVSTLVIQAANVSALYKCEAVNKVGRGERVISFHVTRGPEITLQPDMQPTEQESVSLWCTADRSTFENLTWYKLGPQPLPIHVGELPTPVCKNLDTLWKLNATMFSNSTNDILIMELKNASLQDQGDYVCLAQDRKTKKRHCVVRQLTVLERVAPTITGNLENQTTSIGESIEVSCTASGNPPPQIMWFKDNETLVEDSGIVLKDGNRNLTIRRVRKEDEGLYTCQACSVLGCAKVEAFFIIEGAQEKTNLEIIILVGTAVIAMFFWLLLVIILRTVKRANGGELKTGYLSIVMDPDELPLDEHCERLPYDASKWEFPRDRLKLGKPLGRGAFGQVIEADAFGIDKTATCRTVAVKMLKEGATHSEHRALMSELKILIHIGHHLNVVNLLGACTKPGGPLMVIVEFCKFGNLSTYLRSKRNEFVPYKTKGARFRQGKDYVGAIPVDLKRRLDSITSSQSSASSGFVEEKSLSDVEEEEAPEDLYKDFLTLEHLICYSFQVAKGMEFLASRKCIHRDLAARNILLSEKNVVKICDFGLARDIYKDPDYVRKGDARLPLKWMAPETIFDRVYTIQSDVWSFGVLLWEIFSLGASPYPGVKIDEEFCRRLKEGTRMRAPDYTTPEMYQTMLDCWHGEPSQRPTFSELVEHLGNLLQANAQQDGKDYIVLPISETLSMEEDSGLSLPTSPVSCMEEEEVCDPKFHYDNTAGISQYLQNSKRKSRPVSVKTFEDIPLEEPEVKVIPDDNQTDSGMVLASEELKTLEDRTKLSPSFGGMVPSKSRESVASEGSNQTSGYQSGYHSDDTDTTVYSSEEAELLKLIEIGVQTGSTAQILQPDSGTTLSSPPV
T1 sequence (P12931 whole entry): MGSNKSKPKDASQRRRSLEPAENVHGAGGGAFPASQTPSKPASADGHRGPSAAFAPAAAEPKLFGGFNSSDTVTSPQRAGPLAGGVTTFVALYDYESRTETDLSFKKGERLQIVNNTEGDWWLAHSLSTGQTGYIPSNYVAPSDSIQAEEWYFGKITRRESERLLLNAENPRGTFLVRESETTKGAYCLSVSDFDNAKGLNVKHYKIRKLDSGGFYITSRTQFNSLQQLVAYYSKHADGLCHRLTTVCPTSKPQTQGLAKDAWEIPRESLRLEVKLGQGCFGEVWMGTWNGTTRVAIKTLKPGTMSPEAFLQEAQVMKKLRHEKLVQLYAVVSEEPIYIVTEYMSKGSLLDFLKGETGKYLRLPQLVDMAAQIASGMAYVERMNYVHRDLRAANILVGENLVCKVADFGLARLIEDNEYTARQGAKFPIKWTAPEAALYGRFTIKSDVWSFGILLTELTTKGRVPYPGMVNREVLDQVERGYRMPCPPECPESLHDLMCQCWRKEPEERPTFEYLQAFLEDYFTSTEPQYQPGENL

`O=C(Nc1ccc(Cl)c(C(=O)Nc2cnc(Nc3ccc(C(=O)N4CCN(CCO)CC4)nc3)nc2)c1)c1cccc(C(F)(F)F)c1`: the half-inhibitory concentration (IC50) against human c-Src was found to be 1.9 nM; on VEGFR2, 3.1 nM. On to `Cc1ccc(NC(=O)c2cccc(C(F)(F)F)c2)cc1C(=O)Nc1cnc(Nc2ccc(S(=O)(=O)CCCN3CCCC3)cc2)nc1`, for which the concentration for half-maximal inhibition (IC50) against human c-Src worked out at 3.8 nM; at VEGFR2, 14.2 nM. On to `O=C(Nc1ccc(Cl)c(C(=O)Nc2cnc(Nc3ccc(C(=O)NCCN4CCCC4)nc3)nc2)c1)c1cccc(C(F)(F)F)c1`, for which the 50% inhibitory concentration (IC50) at human c-Src was 5 nM.

As for `Cc1ccc(NC(=O)c2cccc(C(F)(F)F)c2)cc1C(=O)Nc1cnc(Nc2ccc(C(=O)NCCN3CCCC3)nc2)nc1`, the half-inhibitory concentration (IC50) worked out at 4.1 nM against human c-Src and 21 nM against VEGFR2.

As to `O=C(NCCN1CCCC1)c1ccc(Nc2ncc(NC(=O)c3cc(NC(=O)c4cccc(C(F)(F)F)c4)ccc3Cl)cn2)cc1`, the IC50 was 1.4 nM against human c-Src and 2.2 nM on VEGFR2.

At human c-Src, `Cc1ccc(NC(=O)c2c(F)cc(F)cc2F)cc1C(=O)Nc1cnc(Nc2cccc(CCCN3CCCC3)c2)nc1` gave an IC50 of 102 nM. As for `Cc1ccc(NC(=O)c2cccc(C(F)(F)F)c2)cc1C(=O)Nc1cnc(Nc2ccc(C(=O)NCCN3CCCC3)cc2)nc1`, inhibition on human c-Src was half-maximal at 1.7 nM (IC50). Regarding `CN1CCN(C(=O)c2ccc(Nc3ncc(NC(=O)c4cc(NC(=O)c5cccc(C(F)(F)F)c5)ccc4Cl)cn3)cc2)CC1`, the IC50 against human c-Src was determined as 1.7 nM; on VEGFR2, 2.3 nM. The molecule `CN1CCN(C(=O)c2ccc(Nc3ncc(NC(=O)c4cc(NC(=O)c5cccnc5)ccc4Cl)cn3)cc2)CC1` displayed an IC50 against human c-Src of 93.2 nM.

For the molecule `Cc1ccc(NC(=O)c2cccc(C(F)(F)F)c2)cc1Nc1cnc(Nc2cccc(CCCN3CCCC3)c2)nc1`, at human c-Src, the midpoint of inhibition, the IC50, lay at 755 nM. In the case of `O=C(Nc1ccc(Cl)c(C(=O)Nc2cnc(Nc3ccc(OCCN4CCCC4)cc3)nc2)c1)c1cccc(F)c1`, the IC50 came to 3 nM against human c-Src and 40.7 nM against VEGFR2.

`Cc1cccc(C(=O)Nc2ccc(Cl)c(C(=O)Nc3cnc(Nc4ccc(S(=O)(=O)CCCN5CCCC5)cc4)nc3)c2)c1`: on human c-Src, 11.6 nM corresponded to half-maximal inhibition (IC50).

Consider `Cc1ccc(NC(=O)Nc2cccc(C(F)(F)F)c2)cc1C(=O)Nc1cnc(Nc2cccc(OCCN3CCCC3)c2)nc1`, for which the IC50 against human c-Src is 1.8 nM; against VEGFR2, 73.1 nM. At human c-Src, `Cc1ccc(NC(=O)c2ccccc2)cc1C(=O)Nc1cnc(Nc2cccc(OCCN3CCCC3)c2)nc1` gave a concentration for half-maximal inhibition (IC50) of 16.6 nM. At human c-Src, `O=C(Nc1ccc(Cl)c(C(=O)Nc2cnc(Nc3ccc(S(=O)(=O)C4CCNCC4)cc3)nc2)c1)c1cccs1` gave an IC50 of 38.2 nM.

In turn, `N#Cc1ccc(C(=O)Nc2ccc(Cl)c(C(=O)Nc3cnc(Nc4ccc(S(=O)(=O)C5CCNCC5)cc4)nc3)c2)cc1` gave an IC50 against human c-Src of 32 nM. In the case of `COc1ccc(C(=O)Nc2ccc(Cl)c(C(=O)Nc3cnc(Nc4ccc(S(=O)(=O)C5CCNCC5)cc4)nc3)c2)cc1`, the IC50 at human c-Src came to 17.5 nM. `O=C(Nc1cnc(Nc2cccnc2)nc1)c1cc(Nc2ccc3ccccc3n2)ccc1Cl` came in with an IC50 on human c-Src of 454 nM. In turn, `Cc1ccc(NC(=O)C(C)(C)C)cc1C(=O)Nc1cnc(Nc2ccc(OCCN3CCCC3)cc2)nc1` gave an IC50 on human c-Src above 10000 nM.

On to `Cc1ccc(NC(=O)Nc2ccccc2)cc1C(=O)Nc1cnc(Nc2ccc(OCCN3CCCC3)cc2)nc1`, for which the IC50 against human c-Src was 4.5 nM; at VEGFR2 it was 168 nM.

`O=C(Nc1ccc(Cl)c(C(=O)Nc2cnc(Nc3ccc(S(=O)(=O)C4CCNCC4)cc3)nc2)c1)c1cc(C(F)(F)F)ccc1F`: the IC50 on human c-Src was 4.2 nM; against VEGFR2 it was 22.3 nM. In the case of `O=C(Nc1ccc(Cl)c(C(=O)Nc2cnc(Nc3ccc(S(=O)(=O)C4CCNCC4)cc3)nc2)c1)c1cccc(Cl)c1`, the figures for the IC50 on human c-Src and on VEGFR2 were 2.5 nM and 11.6 nM, respectively. For `Cc1ccc(NC(=O)Nc2cccc(C(F)(F)F)c2)cc1C(=O)Nc1cnc(Nc2cccnc2)nc1`, in that order: 7.9 nM and 27.8 nM.

`O=C(Nc1cnc(Nc2ccc(S(=O)(=O)CCCN3CCCC3)cc2)nc1)c1cccc(NC(=O)c2cccc(C(F)(F)F)c2)c1` gave an IC50 on human c-Src of 67.4 nM. `O=C(Nc1cnc(Nc2ccc(OCCN3CCCC3)cc2)nc1)c1cc(NC(=O)C2CCCCC2)ccc1Cl` gave a half-maximal inhibitory concentration (IC50) on human c-Src of 19.4 nM. Still for that read-out and setting: as for `Cc1ccc(NC(=O)Cc2cccc(C(F)(F)F)c2)cc1C(=O)Nc1cnc(Nc2cccnc2)nc1`, the figure is 56.9 nM. On human c-Src, `O=C(Nc1cnc(Nc2cccc(OCCN3CCCC3)c2)nc1)c1cc(Nc2ccccn2)ccc1Cl` came in with a half-maximal inhibitory concentration (IC50) of 169 nM. On the same count and under the same terms, under `O=C(Nc1ccc(C(=O)Nc2cnc(Nc3cccc(OCCN4CCCC4)c3)nc2)c(Cl)c1)c1cccc(C(F)(F)F)c1` stands 65.7 nM; under `CCOC(=O)c1cccc(Nc2ncc(NC(=O)c3cc(NC(=O)c4cccc(C(F)(F)F)c4)ccc3Cl)cn2)c1`, 13.4 nM; under `Nc1ncc(NC(=O)c2cc(NC(=O)c3cccc(C(F)(F)F)c3)ccc2Cl)cn1`, 72 nM. For the molecule `O=C(Nc1ccc(Cl)c(CNc2cnc(Nc3cccnc3)nc2)c1)c1cccc(C(F)(F)F)c1`, the half-maximal inhibitory concentration (IC50) on human c-Src came out at 10.2 nM; against VEGFR2, 2.1 nM. As for `CC(=O)Nc1ccc(Cl)c(C(=O)Nc2cnc(Nc3ccc(S(=O)(=O)C4CCNCC4)cc3)nc2)c1`, on human c-Src, the half-inhibitory concentration (IC50) is 2600 nM.

`O=C(Nc1cnc(Nc2ccc(CCCN3CCCC3)cc2)nc1)c1cc(Nc2ccc3ccccc3n2)ccc1Cl` came in with an IC50 against human c-Src of 407 nM. As for `O=C(Nc1ccc(Cl)c(C(=O)Nc2cnc(NCCN3CCCC3)nc2)c1)c1cccc(C(F)(F)F)c1`, the half-inhibitory concentration (IC50) against human c-Src is above 10000 nM. Still for that read-out and setting: under `Cc1cc(C(=O)Nc2ccc(Cl)c(C(=O)Nc3cnc(Nc4ccc(OCCN5CCCC5)cc4)nc3)c2)no1` stands 77.5 nM. On to `O=C(Nc1ccc(Cl)c(C(=O)Nc2cnc(Nc3cccc(S(=O)(=O)NCCN4CCCC4)c3)nc2)c1)c1cccc(C(F)(F)F)c1`, for which the results for the half-inhibitory concentration (IC50) against human c-Src and at VEGFR2 were 4 nM and 2.1 nM, respectively. Turning to `O=C(Nc1ccc(Cl)c(C(=O)Nc2cnc(Nc3ccc(OCCN4CCCC4)cc3)nc2)c1)c1ccc(C(F)(F)F)cc1`, the concentration for half-maximal inhibition (IC50) against human c-Src worked out at 3.3 nM; on VEGFR2, 12 nM. For `O=C(Nc1cccc(C(F)(F)F)c1)Nc1ccc(Cl)c(C(=O)Nc2cnc(Nc3cccnc3)nc2)c1`, the half-inhibitory concentration (IC50) was 14.2 nM on human c-Src and 20.1 nM against VEGFR2.

In turn, `Cc1ccc(S(=O)(=O)NCc2ccccc2)cc1Nc1cnc(Nc2ccc(S(=O)(=O)NCCN3CCCC3)cc2)nc1` gave a 50% inhibitory concentration (IC50) against human c-Src of 1300 nM.

Regarding `Cc1ccc(S(N)(=O)=O)cc1Nc1cnc(Nc2ccc(S(=O)(=O)NCCN3CCCC3)cc2)nc1`, the IC50 on human c-Src was around 10000 nM. On to `O=C(Nc1ccc(Cl)c(NC(=O)c2cnc(Nc3ccc(OCCN4CCCC4)cc3)nc2)c1)c1cccc(C(F)(F)F)c1`, for which the IC50 against human c-Src was found to be 50 nM; on VEGFR2, 43 nM. For `O=C(Nc1ccc(Cl)c(NC(=O)c2cnc(Nc3cccc(OCCN4CCCC4)c3)nc2)c1)c1cccc(C(F)(F)F)c1`, the IC50 worked out at 67 nM on human c-Src and 149 nM on VEGFR2. The like results for `O=C(Nc1ccc(Cl)c(NC(=O)c2cnc(Nc3cccnc3)nc2)c1)c1cccc(C(F)(F)F)c1` were, in that order, 86 nM and 178 nM. As to `COc1ccc(Nc2ncc(NC(=O)c3cc(NC(=O)c4cccc(C(F)(F)F)c4)ccc3Cl)cn2)cc1`, the IC50 against human c-Src is 12 nM; against VEGFR2, 23 nM. For `O=C(Nc1ccc(Cl)c(C(=O)Nc2cnc(Nc3ccc(O)cc3)nc2)c1)c1cccc(C(F)(F)F)c1`, in that order: 19 nM and 15 nM. As to `O=C(Nc1ccc(Cl)c(C(=O)Nc2cnc(Nc3ccc(OC(=O)c4ccccc4)cc3)nc2)c1)c1cccc(C(F)(F)F)c1`, the IC50 at human c-Src came out at 647 nM; against VEGFR2, 361 nM. `Cc1cccc(NC(=O)c2cccc(C(=O)Nc3cnc(Nc4ccc(S(=O)(=O)CCCN5CCCC5)cc4)nc3)c2)c1` returned an IC50 on VEGFR2 of 164 nM. The same measure, in the same setting: as for `O=C(Nc1ccc(Cl)c(C(=O)Nc2cnc(Nc3ccc(S(=O)(=O)CCCN4CCCC4)cc3)nc2)c1)c1cccc(C(F)(F)F)c1` [drawing 161], the figure is 2.9 nM.

As to `O=C(Nc1ccc(Cl)c(C(=O)Nc2cnc(Nc3cccc(OCCN4CCCC4)c3)nc2)c1)c1cccc(C(F)(F)F)c1` [drawing 162], the half-inhibitory concentration (IC50) at human c-Src came out at 2.1 nM; against VEGFR2, 2.7 nM. The like results for `Cc1ccc(NC(=O)c2cccc(C(F)(F)F)c2)cc1C(=O)Nc1cnc(Nc2cccc(OCCN3CCCC3)c2)nc1` [drawing 163] were, in that order, 3.9 nM and 13.8 nM. Molecule `O=C(Nc1cnc(Nc2cccc(OCCN3CCCC3)c2)nc1)c1cc(NC(=O)C(F)(F)F)ccc1Cl` [drawing 168] returned an IC50 on human c-Src of 63.4 nM. Take `O=C(Nc1ccc(Cl)c(C(=O)Nc2cnc(Nc3ccc(S(=O)(=O)C4CCNCC4)cc3)nc2)c1)c1cccc(C(F)(F)F)c1` [drawing 169]: the 50% inhibitory concentration (IC50) was 1.8 nM against human c-Src and 4.5 nM at VEGFR2. Turning to `Cc1ccc(NC(=O)c2cccc(C(F)(F)F)c2)cc1C(=O)Nc1cnc(Nc2ccc(OCCN3CCCC3)cc2)nc1` [drawing 170], the values for the concentration for half-maximal inhibition (IC50) on human c-Src and at VEGFR2 were 3.3 nM and 3.2 nM, respectively.

At human c-Src, `O=C(Nc1ccc(Cl)c(C(=O)Nc2cnc(Nc3ccc(CCCN4CCCC4)cc3)nc2)c1)c1cccc(C(F)(F)F)c1` [drawing 172] gave a half-inhibitory concentration (IC50) of 2.8 nM. Consider `Cc1ccc(NC(=O)C(F)(F)F)cc1C(=O)Nc1cnc(Nc2cccc(OCCN3CCCC3)c2)nc1` [drawing 173], for which the IC50 against human c-Src was 50.6 nM. Consider `O=C(Nc1ccc(Cl)c(C(=O)Nc2cnc(Nc3ccc(CCCN4CCCC4)cc3)nc2)c1)c1cccc(C(F)(F)F)c1` [drawing 180], for which, at human c-Src, half-maximal inhibition (IC50) required 2.6 nM.
